Reference: patent US12479803B2, “Antimalarial compounds” (UNIVERSITY OF CENTRAL FLORIDA RESEARCH FOUNDATION, INC., priority 2019, dated 2025)
Several values for one entry are separate records, joined by “and”; a condition that tells them apart may be missing. Equal entries are not always repeated. Where two headings read alike, the source gives them in different places.

System: CQ-resistant (Dd2) strain of P. falciparum
Test: In vitro antiplasmodial activity, SYBR Green I fluorescence assay, Dd2 strain
Type: cell-based, Plasmodium falciparum
Experimental: A set of 104 new styrylquinoline derivatives were synthesized and investigated for in vitro their antimalarial activity. To test antimalarial activities, different dilutions of compounds were added to P. falciparum culture. Following 72 h incubation at 37° C. in an atmosphere containing 5% CO2, the inhibitory property of the compounds were determined by SYBR Green I fluorescence assay. Meanwhile, SARs studies were conducted.
The SAR studies were focused on improving the in vitro activity of 2-arylvinylquinolines against the CQ-resistant Pf Dd2 strain.

[1] = CQ-resistant (Dd2) strain, 72 h incubation, read-out: EC50 (nmol)

Row | SMILES | EC50 [1] | further results
1 | COc1ccc2nc(C)cc(NCCN(C)C)c2c1 [Compound 6a] | 5520 ± 571 nM | EC50 (Dd2 strain): inactive
2 | Cc1cc(NCCN(C)C)c2cc(Cl)ccc2n1 [Compound 6c] | 732 ± 107 nM | EC50 (Dd2 strain): inactive
3 | Cc1cc(NCCCN(C)C)c2cc(Cl)ccc2n1 [Compound 6e] | 1240 ± 139 nM | EC50 (Dd2 strain): inactive
4 | COc1ccc2nc(/C=C/c3ccccc3)cc(NCCN(C)C)c2c1 [Compound 8] |  | EC50 (Dd2 strain, read-out: EC50): 41.2 ± 5.3 nM
5 | COc1ccc2nc(/C=C/c3ccc([N+](=O)[O-])cc3)cc(NCCN(C)C)c2c1 [Compound 9] |  | EC50 (Dd2 strain, read-out: EC50): 28.6 ± 0.9 nM
6 | COc1ccc2nc(/C=C/c3ccccc3[N+](=O)[O-])cc(NCCN(C)C)c2c1 [Compound 10] |  | EC50 (Dd2 strain, read-out: EC50): 56.3 ± 8.1 nM
7 | COc1ccc2nc(/C=C/c3cccc([N+](=O)[O-])c3)cc(NCCN(C)C)c2c1 [Compound 11] |  | EC50 (Dd2 strain, read-out: EC50): 49.5 ± 4 nM
8 | COc1ccc(/C=C/c2cc(NCCN(C)C)c3cc(OC)ccc3n2)cc1 [Compound 12] | 43.6 ± 2 nM | 
9 | COc1ccc2nc(/C=C/c3ccc(OC)c(OC)c3)cc(NCCN(C)C)c2c1 [Compound 13] | 187 ± 13.6 nM | 
10 | COc1ccc2nc(/C=C/c3cc(OC)c(OC)c(OC)c3)cc(NCCN(C)C)c2c1 [Compound 14] | 74.2 ± 8.8 nM | 
11 | COc1ccc2nc(/C=C/c3ccc(F)cc3)cc(NCCN(C)C)c2c1 [Compound 15] | 32.9 ± 5.1 nM | 
12 | CN(C)CCNc1cc(/C=C/c2ccccc2)nc2ccc(F)cc12 [Compound 16] |  | EC50 (Dd2 strain, read-out: EC50): 21 ± 2.1 nM
13 | CN(C)CCNc1cc(/C=C/c2ccc([N+](=O)[O-])cc2)nc2ccc(F)cc12 [Compound 17] | 30.9 ± 5.9 nM | 
14 | CN(C)CCNc1cc(/C=C/c2ccc(F)cc2)nc2ccc(F)cc12 [Compound 18] | 30.9 ± 5.5 nM | 
15 | COc1ccc(/C=C/c2cc(NCCN(C)C)c3cc(F)ccc3n2)cc1 [Compound 19] | 37.8 ± 8.7 nM | 
16 | COc1ccc(/C=C/c2cc(NCCN(C)C)c3cc(F)ccc3n2)cc1OC [Compound 20] | 41.1 ± 0.6 nM | 
17 | COc1cc(/C=C/c2cc(NCCN(C)C)c3cc(F)ccc3n2)cc(OC)c1OC [Compound 21] |  | EC50 (Dd2 strain, read-out: EC50): 38.6 ± 1.8 nM
18 | CN(C)CCNc1cc(/C=C/c2ccccc2)nc2ccc(Cl)cc12 [Compound 22] | 22.4 ± 2 nM | 
19 | CN(C)CCNc1cc(/C=C/c2ccc([N+](=O)[O-])cc2)nc2ccc(Cl)cc12 [Compound 23] | 28.7 ± 3.8 nM | 
20 | COc1ccc(/C=C/c2cc(NCCN(C)C)c3cc(Cl)ccc3n2)cc1 [Compound 25] | 34.8 ± 7.9 nM | 
21 | COc1ccc(/C=C/c2cc(NCCN(C)C)c3cc(Cl)ccc3n2)cc1OC [Compound 26] | 38.9 ± 7.8 nM | 

Row | SMILES | EC50 [1] | further results
22 | COc1cc(/C=C/c2cc(NCCN(C)C)c3cc(Cl)ccc3n2)cc(OC)c1OC [Compound 27] | 44.4 ± 3.6 nM | 
23 | CN(C)CCNc1cc(/C=C/c2ccc(N(C)C)cc2)nc2ccc(Cl)cc12 [Compound 28] | 88.3 ± 2.2 nM | 
24 | CN(C)CCNc1cc(/C=C/c2ccccc2)nc2ccccc12 [Compound 32] |  | EC50 (Dd2 strain, read-out: EC50): 80.7 ± 22.4 nM
25 | CN(C)CCNc1cc(/C=C/c2ccc([N+](=O)[O-])cc2)nc2ccccc12 [Compound 33] | 47.9 ± 9.5 nM | 
26 | CN(C)CCNc1cc(/C=C/c2ccc(F)cc2)nc2ccccc12 [Compound 34] | 25.5 ± 7.1 nM | 
27 | CN(C)CCCCNc1cc(/C=C/c2ccccc2)nc2ccc(Cl)cc12 [Compound 35] | 68 ± 9 nM | 
28 | CN(C)CCCCNc1cc(/C=C/c2ccc([N+](=O)[O-])cc2)nc2ccc(Cl)cc12 [Compound 36] | 52.5 ± 2 nM | 
29 | CN(C)CCCCNc1cc(/C=C/c2ccc(F)cc2)nc2ccc(Cl)cc12 [Compound 37] | 51.2 ± 1.6 nM | 
30 | COc1ccc2nc(/C=C/c3ccco3)cc(NCCN(C)C)c2c1 [Compound 39] |  | EC50 (Dd2 strain, read-out: EC50): 88.7 ± 2.3 nM
31 | COc1ccc2nc(/C=C/c3cccs3)cc(NCCN(C)C)c2c1 [Compound 40] | 80 ± 7 nM | 
32 | COc1ccc2nc(/C=C/c3ccncc3)cc(NCCN(C)C)c2c1 [Compound 41] |  | EC50 (Dd2 strain, read-out: EC50): 33.6 nM and 38.8 nM
33 | COc1ccc2nc(/C=C/c3ccccn3)cc(NCCN(C)C)c2c1 [Compound 42] |  | EC50 (Dd2 strain, read-out: EC50): 1030 ± 233 nM
34 | COc1ccc2nc(/C=C/c3cccnc3)cc(NCCN(C)C)c2c1 [Compound 43] | 71 ± 27.5 nM | 
35 | CN(C)CCNc1cc(/C=C/c2ccco2)nc2ccc(F)cc12 [Compound 44] |  | EC50 (Dd2 strain, read-out: EC50): 82.6 ± 9.4 nM
36 | CN(C)CCNc1cc(/C=C/c2cccs2)nc2ccc(F)cc12 [Compound 45] | 111 ± 29.1 nM | 
37 | CN(C)CCNc1cc(/C=C/c2ccncc2)nc2ccc(F)cc12 [Compound 46] | 36.1 ± 2.1 nM | 
38 | CN(C)CCNc1cc(/C=C/c2ccco2)nc2ccc(Cl)cc12 [Compound 47] |  | EC50 (Dd2 strain, read-out: EC50): 37 ± 4.3 nM
39 | CN(C)CCNc1cc(/C=C/c2cccs2)nc2ccc(Cl)cc12 [Compound 48] | 29.7 ± 4.6 nM | 
40 | CN(C)CCNc1cc(/C=C/c2nccs2)nc2ccc(Cl)cc12 [Compound 49] | 240 ± 30.6 nM | 
41 | CN(C)CCNc1cc(/C=C/c2ccccn2)nc2ccc(Cl)cc12 [Compound 51] | 67.5 ± 1.9 nM | 
42 | CN(C)CCNc1cc(/C=C/c2cccnc2)nc2ccc(Cl)cc12 [Compound 52] | 33.6 ± 5.8 nM | 

Row | SMILES | EC50 [1] | further results
43 | CN(C)CCNc1cc(/C=C/c2cncnc2)nc2ccc(Cl)cc12 [Compound 53] |  | EC50 (Dd2 strain, read-out: EC50): 155 ± 11.6 nM
44 | CN(C)CCNc1cc(/C=C/c2cc3ccccc3[nH]2)nc2ccc(Cl)cc12 [Compound 54] |  | EC50 (Dd2 strain, read-out: EC50): 95.9 ± 6.7 nM
45 | COc1ccc2nc(/C=C/c3cc(NCCN(C)C)c4cc(Cl)ccc4n3)ccc2c1 [Compound 55] |  | EC50 (Dd2 strain, read-out: EC50): 281 ± 40.3 nM
46 | CN(C)CCNc1cc(/C=C/c2cccc3ccccc23)nc2ccc(Cl)cc12 [Compound 56] | 373 ± 19 nM | 
47 | CN(C)CCNc1cc(/C=C/C2CCCCC2)nc2ccc(Cl)cc12 [Compound 57] | 394 ± 40 nM | 
48 | COc1ccc2nc(CCc3ccncc3)cc(NCCN(C)C)c2c1 [Compound 58] |  | EC50 (Dd2 strain, read-out: EC50): 709 ± 58.2 nM
49 | CN(C)CCNc1cc(CCc2ccncc2)nc2ccc(Cl)cc12 [Compound 59] |  | EC50 (Dd2 strain, read-out: EC50): 259 ± 15.5 nM
50 | Fc1ccc(/C=C/c2cc(N3CCOCC3)c3cc(Cl)ccc3n2)cc1 [Compound 62] | 6750 ± 1080 nM | 
51 | Clc1ccc2nc(/C=C/c3ccncc3)cc(N3CCOCC3)c2c1 [Compound 63] | 3590 ± 870 nM | 
52 | N#Cc1ccc(/C=C/c2cc(N3CCOCC3)c3cc(Cl)ccc3n2)cc1 [Compound 64] | 1010 ± 84.2 nM | EC50 (Dd2 strain, read-out: EC50): > 1000 nM
53 | Fc1ccc(/C=C/c2cc(N3CCCC3)c3cc(Cl)ccc3n2)cc1 [Compound 65] | 428 ± 15 nM | 
54 | Clc1ccc2nc(/C=C/c3ccncc3)cc(N3CCCC3)c2c1 [Compound 66] | 1180 ± 175 nM | 
55 | Fc1ccc(/C=C/c2cc(N3CCN(c4ccccn4)CC3)c3cc(Cl)ccc3n2)cc1 [Compound 67] | 3300 ± 60 nM | 
56 | Clc1ccc2nc(/C=C/c3ccncc3)cc(N3CCN(c4ccccn4)CC3)c2c1 [Compound 68] | 2570 ± 610 nM | 
57 | Fc1ccc(/C=C/c2cc(Nc3ccc(N4CCCCC4)cc3)c3cc(Cl)ccc3n2)cc1 [Compound 69] | 667 ± 117 nM | 
58 | Clc1ccc2nc(/C=C/c3ccncc3)cc(Nc3ccc(N4CCCCC4)cc3)c2c1 [Compound 70] | 793 ± 81.3 nM | 
59 | Fc1ccc(/C=C/c2cc(N3CCC(N4CCCCC4)CC3)c3cc(Cl)ccc3n2)cc1 [Compound 71] | 487 ± 69.5 nM | 
60 | Clc1ccc2nc(/C=C/c3ccncc3)cc(NCCN3CCOCC3)c2c1 [Compound 82] | 137 ± 14.6 nM | 
61 | Fc1ccc(/C=C/c2cc(NCCN3CCCC3)c3cc(Cl)ccc3n2)cc1 [Compound 83] | 92.3 ± 5.8 nM | 
62 | Clc1ccc2nc(/C=C/c3ccccc3)cc(NCCN3CCCC3)c2c1 [Compound 84] | 107 ± 8.4 nM | 
63 | Clc1ccc2nc(/C=C/c3ccncc3)cc(NCCN3CCCC3)c2c1 [Compound 85] | 67.7 ± 11.6 nM | 

Row | SMILES | EC50 [1] | further results
64 | CN1CCN(CCNc2cc(/C=C/c3ccncc3)nc3ccc(Cl)cc23)CC1 [Compound 87] | 53.3 ± 8.5 nM | 
65 | Fc1ccc(/C=C/c2cc(NCCCN3CCOCC3)c3cc(Cl)ccc3n2)cc1 [Compound 90] | 40.8 ± 5.6 nM | 
66 | FC(F)(F)c1ccc(/C=C/c2cc(NCCCN3CCOCC3)c3cc(Cl)ccc3n2)cc1 [Compound 91] | 84.8 ± 6.3 nM | 
67 | CN1CCN(CCCCNc2cc(/C=C/c3ccccc3)nc3ccc(Cl)cc23)CC1 [Compound 94] | 58.9 ± 8.8 nM | 
68 | CN1CCN(CCCCNc2cc(/C=C/c3ccc(F)cc3)nc3ccc(Cl)cc23)CC1 [Compound 95] | 43 ± 7.5 nM | 
69 | FC(F)(F)c1ccccc1/C=C/c1cc(NCCCCN2CCOCC2)c2cc(Cl)ccc2n1 [Compound 99] |  | EC50 (Dd2 strain, read-out: EC50): 104 ± 7.2 nM
70 | FC(F)(F)c1cccc(/C=C/c2cc(NCCCCN3CCOCC3)c3cc(Cl)ccc3n2)c1 [Compound 100] | 33.9 ± 1.4 nM | 
71 | FC(F)(F)Oc1ccc(/C=C/c2cc(NCCCCN3CCOCC3)c3cc(Cl)ccc3n2)cc1 [Compound 101] | 56.6 ± 7.6 nM | 
72 | FC(F)(F)c1cc(/C=C/c2cc(NCCCCN3CCOCC3)c3cc(Cl)ccc3n2)cc(C(F)(F)F)c1 [Compound 102] | 108 ± 8 nM | 
73 | Fc1cc(F)cc(/C=C/c2cc(NCCCCN3CCOCC3)c3cc(Cl)ccc3n2)c1 [Compound 103] | 185 ± 34.1 nM | 
74 | Fc1ccc(/C=C/c2cc(NCCCCN3CCOCC3)c3cc(Cl)ccc3n2)c(F)c1 [Compound 104] | 72.6 ± 17.2 nM | 
75 | Fc1cc(F)c(F)c(/C=C/c2cc(NCCCCN3CCOCC3)c3cc(Cl)ccc3n2)c1 [Compound 106] | 588 ± 256 nM | 
76 | Fc1cc(F)c(/C=C/c2cc(NCCCCN3CCOCC3)c3cc(Cl)ccc3n2)cc1F [Compound 107] | 197 ± 39.7 nM | 
77 | Fc1cc(/C=C/c2cc(NCCCCN3CCOCC3)c3cc(Cl)ccc3n2)cc(F)c1F [Compound 108] | 130 ± 34.9 nM | 
78 | Fc1cnccc1/C=C/c1cc(NCCCCN2CCOCC2)c2cc(Cl)ccc2n1 [Compound 109] |  | EC50 (Dd2 strain, read-out: EC50): 79.6 ± 11.8 nM
79 | Fc1ccc(/C=C/c2cc(NCCCCN3CCOCC3)c3cc(Cl)ccc3n2)cn1 [Compound 110] | 54.6 ± 16.5 nM | IC50 (Dd2 strain): 54.6 ± 16.5 nM
80 | Fc1ccc(/C=C/c2cc(NCCCCN3CCOCC3)c3cc(Cl)ccc3n2)nc1 [Compound 111] | 73.1 ± 11.9 nM | 
81 | Fc1cccnc1/C=C/c1cc(NCCCCN2CCOCC2)c2cc(Cl)ccc2n1 [Compound 112] |  | EC50 (Dd2 strain, read-out: EC50): 197 ± 16.5 nM
82 | Fc1ccc(/C=C/C=C/c2cc(NCCCCN3CCOCC3)c3cc(Cl)ccc3n2)cc1 [Compound 113] | 96.5 ± 24.4 nM | 
83 | Clc1ccc2nc(/C=C/C=C/c3ccccc3)cc(NCCCCN3CCOCC3)c2c1 [Compound 114] | 143 ± 18.6 nM | 
84 | Clc1ccc2nc(-c3ccccc3)cc(NCCCCN3CCOCC3)c2c1 [Compound 119] | 423 ± 62.7 nM | 
